In patent US7252926B2, “Planographic printing plate material and preparing process of planographic printing plate” (Konica Minolta Medical & Graphic, Inc., priority 2003, dated 2007):

Test: Solubility of the dye in methyl ethyl ketone (MEK)
Type: physicochemical
Settings: dye dissolved in methyl ethyl ketone; wt % at 25° C.
Protocol: An anionic dye of the present invention dissolving in an amount of not less than 1% indicates an anionic dye dissolving in methyl ethyl ketone not less than 1 wt % at 25° C. More preferably, an anionic dye dissolving in methyl ethyl ketone in an amount of not less than 1.5 wt %. And still more preferably, it is not less than 2 wt %, and specifically preferably, it is not less than 2.5 wt %.

| SMILES | MEK Solubility (%) |
| --- | --- |
| CCCCN1C(=O)C(=C2C=C(C)c3ccc(N(CC)CC)cc3O2)C(=O)N(CCCC)C1=S [Dye1 (nonion)] | 2 |
| Cn1c(-c2ccccc2)c(/C=C/C2=[N+](C)c3cc(Cl)ccc3C2(C)C)c2ccccc21 [Dye2 (cation)] | 1 |
